Source: patent US20230203043A1, “NOVEL IMIDAZOPYRAZINE DERIVATIVES” (Hoffmann-La Roche Inc., priority 2020, published 2023)
Counter-ions that a name gives are not always drawn.

System: Acinetobacter baumannii ATCC17961
Experiment: Antimicrobial susceptibility testing: 90% growth inhibitory concentration (IC90) determination in Iso-Sensitest broth, OD600 growth
Format: cell-based
Details: Acinetobacter baumannii, ATCC17961, 16 h, read-out: A. baumannii ATCC 17961 IC90 (uM), strain ATCC 17961, OD600 growth over 16 h
In short: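 Serial twofold dilution, 10 points, e.g. 50–0.097 μM final; ~5×10^(5) CFU/ml; 35±2° C, 16 h; kinetic OD600 every 20 min; IC90 from log-phase inhibition.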

SMILES	IC90 [µM]
CCc1cc(Nc2nccn3c(-c4cn(C(C)C#N)nc4C(F)(F)F)cnc23)ccc1C(=O)NCC1CC1N (centres unmarked) [Example 700, N-((2-aminocyclopropyl)methyl)-4-((3-(1-(1-cyanoethyl)-3-(trifluoromethyl)-1H-pyrazol-4-yl)imidazo[1,2-a]pyrazin-8-yl)amino)-2-ethylbenzamide formate]	0.382
CCc1cc(Nc2nccn3c(-c4cn(CC#N)nc4C(F)(F)F)cnc23)ccc1C(=O)NCCCNC(=O)CCN [Example 702, N-(3-(3-aminopropanamido)propyl)-4-((3-(1-(cyanomethyl)-3-(trifluoromethyl)-1H-pyrazol-4-yl)imidazo[1,2-a]pyrazin-8-yl)amino)-2-ethylbenzamide formate]	0.383
Cc1cc(Nc2nccn3c(-c4cn(CC#N)nc4C(F)(F)F)cnc23)cc(F)c1C(=O)N1CCN(C(=O)C2CCNCC2)CC1 [Example 703, 2-(4-(8-((3-fluoro-5-methyl-4-(4-(piperidine-4-carbonyl)piperazine-1-carbonyl)phenyl)amino)imidazo[1,2-a]pyrazin-3-yl)-3-(trifluoromethyl)-1H-pyrazol-1-yl)acetonitrile formate]	0.383
N#CCn1cc(-c2cnc3c(Nc4ccc(C(=O)NCC(=O)N5CC(N)C5)c(Cl)c4)nccn23)c(C(F)(F)F)n1 [Example 713, N-[2-(3-aminoazetidin-1-yl)-2-oxo-ethyl]-2-chloro-4-[[3-[1-(cyanomethyl)-3-(trifluoromethyl)pyrazol-4-yl]imidazo[1,2-a]pyrazin-8-yl]amino]benzamide formate]	0.417
CCc1cc(Nc2nccn3c(-c4cn(CC#N)nc4C(F)(F)F)cnc23)ccc1C(=O)NCC(=O)N1CC(N)C1 [Example 716, N-[2-(3-aminoazetidin-1-yl)-2-oxo-ethyl]-4-[[3-[1-(cyanomethyl)-3-(trifluoromethyl)pyrazol-4-yl]imidazo[1,2-a]pyrazin-8-yl]amino]-2-ethyl-benzamide formate]	0.426
CCc1cc(Nc2nccn3c(-c4cn(CC(F)F)nc4C(F)(F)F)cnc23)ccc1C(=O)NCCOCCN1CCOCC1 [Example 717, 4-((3-(1-(2,2-difluoroethyl)-3-(trifluoromethyl)-1H-pyrazol-4-yl)imidazo[1,2-a]pyrazin-8-yl)amino)-2-ethyl-N-(2-(2-morpholinoethoxy)ethyl)benzamide formate]	0.434
CCc1cc(Nc2nccn3c(-c4c[nH]nc4C(F)(F)F)cnc23)ccc1C(=O)NCCNC(=O)[C@H](C)N [Example 718, (S)-N-(2-(2-aminopropanamido)ethyl)-2-ethyl-4-((3-(3-(trifluoromethyl)-1H-pyrazol-4-yl)imidazo [1,2-a]pyrazin-8-yl)amino)benzamide formate]	0.435
Cc1cc(Nc2nccn3c(-c4cn(CC#N)nc4C(F)(F)F)cnc23)cc(F)c1C(=O)N1CCN(C(=O)[C@@H]2C[C@@H](O)CN2)CC1 [Example 721, 2-(4-(8-((3-fluoro-4-(4-((2S,4R)-4-hydroxypyrrolidine-2-carbonyl)piperazine-1-carbonyl)-5-methylphenyl)amino)imidazo[1,2-a]pyrazin-3-yl)-3-(trifluoromethyl)-1H-pyrazol-1-yl) acetonitrile formate]	0.452
Cc1cc(Nc2nccn3c(-c4cn(CC#N)nc4C(F)(F)F)cnc23)cc(F)c1C(=O)N[C@H](C)CNC(=O)[C@H](C)N [Example 722, N-((R)-1-((S)-2-aminopropanamido)propan-2-yl)-4-((3-(1-(cyanomethyl)-3-(trifluoromethyl)-1H-pyrazol-4-yl)imidazo[1,2-a]pyrazin-8-yl)amino)-2-fluoro-6-methylbenzamide formate]	0.458

Same assay, conditions: Acinetobacter baumannii, ATCC17961, 16 h, strain ATCC 17961, OD600 growth over 16 h, read-out: A. baumannii ATCC 17961 IC90

SMILES	IC90 [µM]
Cc1cc(Nc2nccn3c(-c4cn(CC(F)F)nc4C(F)(F)F)cnc23)cc(F)c1C(=O)N1CCN(C(=O)[C@H]2C[C@@H](N)C2)CC1 [Example 701, (4-((1s,3s)-3-aminocyclobutane-1-carbonyl)piperazin-1-yl)(4-((3-(1-(2,2-difluoroethyl)-3-(trifluoromethyl)-1H-pyrazol-4-yl)imidazo[1,2-a]pyrazin-8-yl)amino)-2-fluoro-6-methylphenyl)methanone]	0.382
Cc1cc(Nc2nccn3c(-c4cn(CC(F)F)nc4C(F)(F)F)cnc23)cc(F)c1C(=O)N[C@H](C)CN [Example 704, (R)-N-(1-aminopropan-2-yl)-4-((3-(1-(2,2-difluoroethyl)-3-(trifluoromethyl)-1H-pyrazol-4-yl)imidazo[1,2-a]pyrazin-8-yl)amino)-2-fluoro-6-methylbenzamide]	0.386
Cc1cc(Nc2nccn3c(-c4cn(CC(F)F)nc4C(F)(F)F)cnc23)cc(F)c1C(=O)N[C@H](C)CNC(=O)C1CCNCC1 [Example 705, (R)-N-(2-(4-((3-(1-(2,2-difluoroethyl)-3-(trifluoromethyl)-1H-pyrazol-4-yl)imidazo[1,2-a]pyrazin-8-yl)amino)-2-fluoro-6-methylbenzamido)propyl)piperidine-4-carboxamide]	0.391
Cc1cc(Nc2nccn3c(-c4cn(CC#N)nc4C(F)(F)F)cnc23)ccc1C(=O)NCC(=O)N1CCNCC1 [Example 706, 4-[[3-[1-(cyanomethyl)-3-(trifluoromethyl)pyrazol-4-yl]imidazo[1,2-a]pyrazin-8-yl]amino]-2-methyl-N-(2-oxo-2-piperazin-1-yl-ethyl) benzamide formate]	0.394
Cc1cc(Nc2nccn3c(-c4cn(CC(F)F)nc4C(F)(F)F)cnc23)cc(F)c1C(=O)N1CCN(C(=O)C2CCNCC2)CC1 [Example 707, (4-(4-((3-(1-(2,2-difluoroethyl)-3-(trifluoromethyl)-1H-pyrazol-4-yl)imidazo[1,2-a]pyrazin-8-yl)amino)-2-fluoro-6-methylbenzoyl)piperazin-1-yl)(piperidin-4-yl) methanone]	0.395
CCc1cc(Nc2nccn3c(-c4c[nH]nc4C(F)(F)F)cnc23)ccc1C(=O)NCCCNC(=O)CNC(=O)C(F)(F)F [Example 708, 2-ethyl-N-(3-(2-(2,2,2-trifluoroacetamido)acetamido)propyl)-4-((3-(3-(trifluoromethyl)-1H-pyrazol-4-yl)imidazo [1,2-a]pyrazin-8-yl)amino)benzamide]	0.397

Further lines, results first:

IC90 [µM]	SMILES
0.408	C[C@@H](NC(=O)c1ccc(Nc2nccn3c(-c4cn(CC#N)nc4C(F)(F)F)cnc23)cc1Cl)C(=O)N[C@H]1CCNC1 [Example 710, 2-chloro-4-[[3-[1-(cyanomethyl)-3-(trifluoromethyl)pyrazol-4-yl]imidazo[1,2-a]pyrazin-8-yl]amino]-N-[(1R)-1-methyl-2-oxo-2-[[(3S)-pyrrolidin-3-yl]amino]ethyl] benzamide formate]
0.409	CCc1cc(Nc2nccn3c(-c4cn(CC(F)F)nc4C(F)(F)F)cnc23)ccc1C(=O)NCC(=O)N1CC[C@H](N)C1 [Example 711, N-[2-[(3S)-3-aminopyrrolidin-1-yl]-2-oxo-ethyl]-4-[[3-[1-(2,2-difluoroethyl)-3-(trifluoromethyl)pyrazol-4-yl]imidazo[1,2-a]pyrazin-8-yl]amino]-2-ethyl-benzamide]
0.41	CCc1cc(Nc2nccn3c(-c4cn(CC#N)nc4C(F)(F)F)cnc23)ccc1C(=O)N[C@H](C)CNC(=O)[C@@H]1C[C@@H](O)CN1 [Example 712, (2S,4R)-N-((R)-2-(4-((3-(1-(cyanomethyl)-3-(trifluoromethyl)-1H-pyrazol-4-yl)imidazo[1,2-a]pyrazin-8-yl)amino)-2-ethylbenzamido)propyl)-4-hydroxypyrrolidine-2-carboxamide]
0.422	Cc1cc(Nc2nccn3c(-c4cn(CCF)nc4C(F)(F)F)cnc23)cc(F)c1C(=O)N1CCN(C(=O)[C@H]2CC[C@H](O)N2)CC1 [Example 714, (4-(2-fluoro-4-((3-(1-(2-fluoroethyl)-3-(trifluoromethyl)-1H-pyrazol-4-yl)imidazo[1,2-a]pyrazin-8-yl)amino)-6-methylbenzoyl)piperazin-1-yl)((2R,5S)-5-hydroxypyrrolidin-2-yl)methanone]
0.422	Cc1cc(Nc2nccn3c(-c4cn(CC#N)nc4C(F)(F)F)cnc23)cc(F)c1C(=O)N1CCN(C(=O)[C@H]2CC[C@H](O)N2)CC1 [Example 715, 2-(4-(8-((3-fluoro-4-(4-((2R,5S)-5-hydroxypyrrolidine-2-carbonyl)piperazine-1-carbonyl)-5-methylphenyl)amino)imidazo[1,2-a]pyrazin-3-yl)-3-(trifluoromethyl)-1H-pyrazol-1-yl) acetonitrile]
0.435	Cc1cc(Nc2nccn3c(-c4cn(CC#N)nc4C(F)(F)F)cnc23)cc(F)c1C(=O)N[C@H](C)CN [Example 719, (R)-N-(1-aminopropan-2-yl)-4-((3-(1-(cyanomethyl)-3-(trifluoromethyl)-1H-pyrazol-4-yl)imidazo[1,2-a]pyrazin-8-yl)amino)-2-fluoro-6-methylbenzamide]
0.441	Cc1cc(Nc2nccn3c(-c4cn(CC#N)nc4C(F)(F)F)cnc23)cc(F)c1C(=O)N[C@H](C)CNC(=O)[C@H]1[C@@H]2CNC[C@@H]21 [Example 720, (1R,5S,6r)-N-((R)-2-(4-((3-(1-(cyanomethyl)-3-(trifluoromethyl)-1H-pyrazol-4-yl)imidazo[1,2-a]pyrazin-8-yl)amino)-2-fluoro-6-methylbenzamido)propyl)-3-azabicyclo[3.1.0] hexane-6-carboxamide formate]

Same assay, conditions: strain ATCC 17961, OD600 growth over 16 h, read-out: A. baumannii ATCC 17961 IC90

IC90 [µM]	SMILES
0.404	Cc1cc(Nc2nccn3c(-c4cn(CC#N)nc4C(F)(F)F)cnc23)cc(F)c1C(=O)N[C@H](C)CNC(=O)[C@H]1C[C@@H](N)C1 [Example 709, N-((R)-1-((1s,3S)-3-aminocyclobutane-1-carboxamido)propan-2-yl)-4-((3-(1-(cyanomethyl)-3-(trifluoromethyl)-1H-pyrazol-4-yl)imidazo[1,2-a]pyrazin-8-yl)amino)-2-fluoro-6-methylbenzamide formate]
